Entries after “also recorded” stand apart in the source; their conditions may differ.
Legend:
[1] = molecular target: BSA (Bos taurus, UniProt P02769); assay: Interaction of ZincBY probes with proteins (BSA): emission, absorbance, polarization; type: binding; settings: for interaction with BSA (in words) / fluorescence turn-on in response to zinc in the presence of BSA / emission maximum in the presence of BSA: 10 mg/mL BSA; for fluorescence turn-on in response to zinc in the presence of BSA: holo vs apo; for polarization: apo and holo forms
Procedure: Aqueous solutions were prepared by using de-ionized water with resistivity […], obtained using a Milli-Q water purification system. In order to properly compare the photophysical properties of ZincBY-2, ZincBY-3, and ZincBY-4 to ZincBY-1, the photophysical properties of ZincBY-1 we remeasured. Tested values differed from the previously published values (Ref. B2; incorporated by reference in its entirety). It was determined that copper was present in the aqueous buffer used for in vitro analysis of the previous samples. The corrected values are used herein, utilizing buffers that are copper-free. Stock solutions of ZincBY-1, ZincBY-2, ZincBY-3, and ZincBY-4 were prepared at concentrations of 5 mM and stored at −20° C. in aliquots that were used immediately after thawing for each experiment. Unless otherwise stated, all spectroscopic methods were conducted in aqueous buffer containing 50 mM HEPES (pH 7.2) and 0.1 M KNO3. UV-visible spectra were acquired on a PerkinElmer Lambda 650 UV/Vis spectrophotometer using quartz cuvettes from Starna (1 cm path length, 10 cm path length used in extinction coefficient and quantum yield determination). Fluorescence spectra were acquired using a PerkinElmer LS 55 fluorescence spectrophotometer. For measurements containing zinc, 99.0% ZnNO3 hexahydrate (final concentration 5 μM) was used. For experiments analyzing apo probes, N,N,N′,N′-Tetrakis(2-pyridylmethyl)ethylenediamine (TPEN) (final concentration 5 μM) was added to solution. Quantum Yield and Extinction Coefficient Determination. Quantum yields for apo and holo ZincBY-1, ZincBY-2, ZincBY-3, and ZincBY-4 were determined by plotting absorbance vs. fluorescence intensity of solutions containing ZincBY-1, ZincBY-2, ZincBY-3, or ZincBY-4 at probe concentrations ranging from 50-250 nM. Serial dilution was used to make solutions at different concentrations. Fluorescein dissolved in 0.1 N NaOH was used as the quantum yield standard, using a literature-determined quantum yield of 0.95.^3 For all fluorophore solutions, fluorescence excitation was set at 490 nm and fluorescence emission was integrated from 510 nm to 650 nm. Zinc Dissociation Constant. Fluorescence spectra were recorded using zinc probes (ZincBY-1, ZincBY-2, ZincBY-3, or ZincBY-4; 200 nM) and ZnSO4 (various concentrations). The solutions were equilibrated in the dark for 1 h prior to measurement. The concentration of ZnSO4 was varied from 1 μM to 9 mM in buffer solution (50 mM HEPES and 0.1 M KNO3, and pH 7.2) containing 10 mM EGTA. Free Zn^2+ was calculated according to a previously reported method (Ref. B4; incorporated by reference in its entirety). Data was fit to the following one-site binding equation: F=(FminKd+Fmax[Zn^2+])/(Kd+[Zn^2+]) pH Response. The fluorescence spectra of zinc probes (ZincBY-2, ZincBY-3, or ZincBY-4; 200 nM) wasere measured at various pH values (4.5-11). The following buffers were used at 50 mM concentration with 0.1 M KNO3: NaOAc/AcOH (pH 4.0-4.5), MES (pH 5.0-6.5), HEPES (pH 7.0-8.0), CHES (pH 8.5-9.5), CAPS (pH 10.0-11.0). Metal Ion Response. The fluorescence spectra of zinc probes (ZincBY-2, ZincBY-3, or ZincBY-4; 200 nM) were measured in the presence an excess of metal ion including 1 mM KNO3, 1 mM NaNO3, 1 mM CaSO4, 1 mM MgSO4, 15 μM MnSO4, 15 μM (NH4)2Fe(SO4)2, 15 μM NH4Fe(SO4)2, 15 μM CoSO4, 15 μM NiSO4, 15 μM CuSO4, 15 μM [Cu(CH3CN)4]PF6, 15 μM CdSO4, 15 μM Hg(NO3)2, 15 μM Pb(NO3)2, or 15 μM ZnSO4. The fluorescence spectra were compared to that of ZincBY-2 (200 nM), ZincBY-3 (200 nM), or ZincBY-4 (200 nM) in the presence of 10 μM TPEN. Determination of octanol-water partition coefficients (log P). A log P value for each probe was determined by agitating nanomolar solutions of each probe in a 1:1 mixture of HEPES buffer and 1-octanol. Solutions were allowed to settle for 1 h and then the fluorescence intensity of each phase was measured. Standard curves of the fluorescence of known concentrations of probes in both solutions were used to determine concentrations. […]

[2] = Octanol-water partition coefficient (log P); type: physicochemical; settings: 1:1 HEPES buffer and 1-octanol
Procedure: Aqueous solutions were prepared by using de-ionized water with resistivity […], obtained using a Milli-Q water purification system. In order to properly compare the photophysical properties of ZincBY-2, ZincBY-3, and ZincBY-4 to ZincBY-1, the photophysical properties of ZincBY-1 we remeasured. Tested values differed from the previously published values (Ref. B2; incorporated by reference in its entirety). It was determined that copper was present in the aqueous buffer used for in vitro analysis of the previous samples. The corrected values are used herein, utilizing buffers that are copper-free. Stock solutions of ZincBY-1, ZincBY-2, ZincBY-3, and ZincBY-4 were prepared at concentrations of 5 mM and stored at −20° C. in aliquots that were used immediately after thawing for each experiment. Unless otherwise stated, all spectroscopic methods were conducted in aqueous buffer containing 50 mM HEPES (pH 7.2) and 0.1 M KNO3. […] Fluorescence spectra were acquired using a PerkinElmer LS 55 fluorescence spectrophotometer. […] Quantum yields for apo and holo ZincBY-1, ZincBY-2, ZincBY-3, and ZincBY-4 were determined by plotting absorbance vs. fluorescence intensity of solutions containing ZincBY-1, ZincBY-2, ZincBY-3, or ZincBY-4 at probe concentrations ranging from 50-250 nM. […] Fluorescein dissolved in 0.1 N NaOH was used as the quantum yield standard, using a literature-determined quantum yield of 0.95.^3 For all fluorophore solutions, fluorescence excitation was set at 490 nm and fluorescence emission was integrated from 510 nm to 650 nm. […] Fluorescence spectra were recorded using zinc probes (ZincBY-1, ZincBY-2, ZincBY-3, or ZincBY-4; 200 nM) and ZnSO4 (various concentrations). […] Free Zn^2+ was calculated according to a previously reported method (Ref. B4; incorporated by reference in its entirety). […] The fluorescence spectra of zinc probes (ZincBY-2, ZincBY-3, or ZincBY-4; 200 nM) wasere measured at various pH values (4.5-11). […] The fluorescence spectra were compared to that of ZincBY-2 (200 nM), ZincBY-3 (200 nM), or ZincBY-4 (200 nM) in the presence of 10 μM TPEN. […]

Chain of BSA (P02769 25-607): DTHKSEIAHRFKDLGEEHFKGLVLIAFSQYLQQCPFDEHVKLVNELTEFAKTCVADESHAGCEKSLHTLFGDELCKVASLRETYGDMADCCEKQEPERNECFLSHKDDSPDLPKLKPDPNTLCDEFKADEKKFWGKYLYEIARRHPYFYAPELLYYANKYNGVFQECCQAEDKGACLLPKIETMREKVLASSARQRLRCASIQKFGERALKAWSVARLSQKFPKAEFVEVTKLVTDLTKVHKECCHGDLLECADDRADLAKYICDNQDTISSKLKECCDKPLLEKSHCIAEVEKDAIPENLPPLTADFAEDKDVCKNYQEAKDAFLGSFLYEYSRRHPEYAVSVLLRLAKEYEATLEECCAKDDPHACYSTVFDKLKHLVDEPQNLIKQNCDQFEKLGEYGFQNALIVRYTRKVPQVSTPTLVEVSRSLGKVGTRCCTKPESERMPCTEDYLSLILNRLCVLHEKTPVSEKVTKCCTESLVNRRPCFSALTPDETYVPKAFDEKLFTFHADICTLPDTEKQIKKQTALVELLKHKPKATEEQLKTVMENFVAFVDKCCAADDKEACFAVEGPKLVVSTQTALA

In the case of `Cc1cc(C)c(C2=C3C=CC(OCCN)=[N+]3[B-](F)(F)n3c2ccc3N(CCN(Cc2ccccn2)Cc2ccccn2)Cc2ccccn2)c(C)c1` [ZincBY-3, N1-(7-(2-aminoethoxy)-5,5-difluoro-10-mesityl-5H-4λ4,5λ4-dipyrrolo[1,2-c:2′,1′-f][1,3,2]diazaborinin-3-yl)-N1,N2,N2-tris(pyridin-2-ylmethyl)ethane-1,2-diamine], the “interaction with BSA (in words)” value [1] is reported as “The same interactions can be found” and the LogP [2] is reported as about 0.15.
For `CC(=O)NCCOc1ccc2n1[B-](F)(F)[N+]1=C(N(CCN(Cc3ccccn3)Cc3ccccn3)Cc3ccccn3)C=CC1=C2c1c(C)cc(C)cc1C` [ZincBY-4, N-(2-((7-((2-(bis(pyridin-2-ylmethyl)amino)ethyl)(pyridin-2-ylmethyl)amino)-5,5-difluoro-10-mesityl-5H-5λ4,6λ4-dipyrrolo[1,2-c:2′,1′-f][1,3,2]diazaborinin-3-yl)oxy)ethyl)acetamide], the “interaction with BSA (in words)” value [1] was “binds readily to the lipid transport protein”, the “fluorescence turn-on in response to zinc in the presence of BSA” value [1] was “two-fold increase in fluorescence intensity over its apo form; also recorded: ca. two-fold” and the polarization ([1]; presence of excess BSA) was 0.37. The polarization ([1]; without BSA) was 0.03, the “emission maximum in the presence of BSA” value ([1]; apo) was 590 nm and the “emission maximum in the presence of BSA” value ([1]; holo, excited at 480 nm) was 575 nm. For the same compound, the LogP [2] was about 0.33.
For `Cc1cc(C)c(C2=C3C=CC(OCCN=[N+]=[N-])=[N+]3[B-](F)(F)n3c2ccc3N(CCN(Cc2ccccn2)Cc2ccccn2)Cc2ccccn2)c(C)c1` [ZincBY-2, N1-(7-(2-azidoethoxy)-5,5-difluoro-10-mesityl-5H-4λ4,5λ4-dipyrrolo[1,2-c:2′,1′-f][1,3,2]diazaborinin-3-yl)-N1,N2,N2-tris(pyridin-2-ylmethyl)ethane-1,2-diamine], the “interaction with BSA (in words)” value [1] was “The same interactions can be found” and the LogP [2] was about 1.25.
In the case of `COc1ccc2n1[B-](F)(F)[N+]1=C(N(CCN(Cc3ccccn3)Cc3ccccn3)Cc3ccccn3)C=CC1=C2c1c(C)cc(C)cc1C` [ZincBY-1, reference compound], the “interaction with BSA (in words)” value [1] is reported as “The same interactions can be found” and the “fluorescence turn-on in response to zinc in the presence of BSA” value [1] is reported as “the fluorescence of apo-ZincBY-1 matches that of holo-ZincBY-1; also recorded: no fluorescence turn-on was observed”.

Reference: US11953435B2, “Zinc-responsive fluorophores” (Northwestern University, priority 2019, dated 2024)
